From ChEMBL document CHEMBL1150491, “Chemistry and pharmacokinetics of diarylthiophenes and terphenyls as selective COX-2 inhibitors” (Bioorg Med Chem Lett, 1996)
pIC50: −log10 of the molar value.

Tests used:
[1] = biological target: T1, Prostaglandin G/H synthase 2 (Homo sapiens, UniProt P35354); test: Compound was evaluated for inhibitory activity against human Prostaglandin G/H synthase 2
T1 sequence (P35354 whole entry): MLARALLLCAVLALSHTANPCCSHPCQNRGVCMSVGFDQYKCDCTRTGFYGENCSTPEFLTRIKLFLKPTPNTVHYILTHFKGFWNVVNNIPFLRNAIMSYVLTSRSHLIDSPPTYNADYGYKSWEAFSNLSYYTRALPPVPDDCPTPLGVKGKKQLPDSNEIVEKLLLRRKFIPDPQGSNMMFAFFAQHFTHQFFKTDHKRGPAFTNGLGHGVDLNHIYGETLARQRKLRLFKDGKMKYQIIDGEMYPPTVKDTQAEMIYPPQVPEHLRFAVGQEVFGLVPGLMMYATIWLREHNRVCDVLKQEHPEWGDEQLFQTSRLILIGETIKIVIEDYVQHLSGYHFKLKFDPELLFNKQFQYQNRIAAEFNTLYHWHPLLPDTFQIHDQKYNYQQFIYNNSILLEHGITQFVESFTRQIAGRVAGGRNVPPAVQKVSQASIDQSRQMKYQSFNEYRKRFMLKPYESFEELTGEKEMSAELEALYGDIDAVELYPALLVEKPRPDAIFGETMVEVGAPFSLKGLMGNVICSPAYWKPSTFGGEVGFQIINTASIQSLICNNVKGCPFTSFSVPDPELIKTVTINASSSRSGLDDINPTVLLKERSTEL

[2] = biological target: T2, Prostaglandin G/H synthase 1 (Ovis aries, UniProt P05979); test: Compound was evaluated for inhibitory activity against ovine Prostaglandin G/H synthase 1
T2 sequence (P05979 whole entry): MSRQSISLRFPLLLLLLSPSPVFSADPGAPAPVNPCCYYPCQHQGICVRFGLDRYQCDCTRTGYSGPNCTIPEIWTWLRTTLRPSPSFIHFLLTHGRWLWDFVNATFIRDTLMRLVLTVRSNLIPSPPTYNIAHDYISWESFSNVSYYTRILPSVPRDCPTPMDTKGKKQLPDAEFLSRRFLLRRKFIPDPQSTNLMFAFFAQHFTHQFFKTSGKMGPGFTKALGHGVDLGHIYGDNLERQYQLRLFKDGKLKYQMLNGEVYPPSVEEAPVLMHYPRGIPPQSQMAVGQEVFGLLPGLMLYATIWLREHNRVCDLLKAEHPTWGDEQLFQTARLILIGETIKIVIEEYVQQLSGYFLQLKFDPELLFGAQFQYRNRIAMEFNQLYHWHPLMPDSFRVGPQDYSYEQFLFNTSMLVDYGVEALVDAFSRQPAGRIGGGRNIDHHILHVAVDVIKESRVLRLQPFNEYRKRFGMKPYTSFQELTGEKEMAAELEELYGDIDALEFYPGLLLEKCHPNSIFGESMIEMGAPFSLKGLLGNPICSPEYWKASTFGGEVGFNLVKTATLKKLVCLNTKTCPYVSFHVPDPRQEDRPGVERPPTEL

[3] = Half life period was evaluated against Sprague-Dawley rats at a dose of 15 mg/kg after iv administration; type: ADME, organism-based; parameters: dose 15 mg/kg, route intravenous; conditions: rat, in vivo
[4] = Volume of distribution was evaluated in Sprague-Dawley rats at a dose of 15 mg/kg after iv administration; type: ADME, organism-based; parameters: dose 15 mg/kg, route intravenous; conditions: rat, in vivo, read-out: Vss
[5] = Oral bioavailability in rat (Sprague-Dawley) (dose 15 mg/kg); type: ADME, organism-based; conditions: in vivo
[6] = Plasma clearance was evaluated in Sprague-Dawley rats at a dose of 15 mg/kg after iv administration; type: ADME, organism-based; parameters: dose 15 mg/kg, route intravenous; conditions: rat
[7] = Time taken to reach maximum concentration in plasma was evaluated in Sprague-Dawley rats at a dose of 15 mg/kg after po administration; type: ADME, organism-based; parameters: dose 15 mg/kg, route oral; conditions: rat
[8] = Maximum concentration in plasma was evaluated in Sprague-Dawley rats at a dose of 15 mg/kg after po administration; type: ADME, organism-based; parameters: dose 15 mg/kg, route oral; conditions: rat
[9] = tested on: Canis familiaris; test: Maximum time was evaluated against Beagle dog at a dose of 15 mg/kg after po administration; type: ADME, organism-based, Canis lupus familiaris; parameters: dose 15 mg/kg, route oral; conditions: in vivo
[10] = Half life period was evaluated against Cynomolgus monkey at a dose of 15 mg/kg after po administration; type: ADME, organism-based; parameters: dose 15 mg/kg, route oral; conditions: cercopithecidae, in vivo
[11] = Bioavailability was evaluated against Cynomolgus monkey at a dose of 15 mg/kg after po administration; type: ADME, organism-based, Macaca fascicularis; conditions: in vivo
[12] = tested on: Canis familiaris; test: Area under curve was evaluated against Beagle dog at a dose of 15 mg/kg after po administration; type: ADME, organism-based, Canis lupus familiaris; parameters: dose 15 mg/kg, route oral; conditions: in vivo
[13] = Maximum concentration was evaluated against man at a dose of 10 mg/kg after po administration; type: ADME, organism-based; parameters: dose 10 mg/kg, route oral; conditions: human, in vivo
[14] = tested on: Canis familiaris; test: Half life period was evaluated against Beagle dog at a dose of 15 mg/kg after po administration; type: ADME, organism-based, Canis lupus familiaris; parameters: dose 15 mg/kg, route oral; conditions: in vivo
[15] = Area under curve was evaluated against man at a dose of 10 mg/kg after po administration; type: ADME, organism-based; parameters: dose 10 mg/kg, route oral; conditions: human, in vivo
[16] = Maximum concentration was evaluated against Cynomolgus monkey at a dose of 15 mg/kg after po administration; type: ADME, organism-based; parameters: dose 15 mg/kg, route oral; conditions: cercopithecidae, in vivo
[17] = Half life period was evaluated in Sprague-Dawley rats at a dose of 15 mg/kg after po administration; type: ADME, organism-based; parameters: dose 15 mg/kg, route oral; conditions: rat, in vivo
[18] = Half life period was evaluated against man at a dose of 10 mg/kg after po administration; type: ADME, organism-based; parameters: dose 10 mg/kg, route oral; conditions: human, in vivo
[19] = Maximum time was evaluated against man at a dose of 10 mg/kg after po administration; type: ADME, organism-based; parameters: dose 10 mg/kg, route oral; conditions: human, in vivo
[20] = Bioavailability was evaluated against Beagle dog at a dose of 15 mg/kg after po administration; type: ADME, organism-based, Canis lupus familiaris; conditions: in vivo
[21] = Area under curve was evaluated against Cynomolgus monkey at a dose of 15 mg/kg after po administration; type: ADME, organism-based; parameters: dose 15 mg/kg, route oral; conditions: cercopithecidae, in vivo
[22] = Maximum time was evaluated against Cynomolgus monkey at a dose of 15 mg/kg after po administration; type: ADME, organism-based; parameters: dose 15 mg/kg, route oral; conditions: cercopithecidae, in vivo
[23] = tested on: Canis familiaris; test: Maximum concentration was evaluated against Beagle dog at a dose of 15 mg/kg after po administration; type: ADME, organism-based, Canis lupus familiaris; parameters: dose 15 mg/kg, route oral; conditions: in vivo

Work on `CCOC(=O)CCc1cc(-c2ccc(S(C)(=O)=O)cc2)c(-c2ccc(F)cc2)s1` yielded a pIC50 [1] of 3.89 and a pIC50 [2] of 3.70.
With `CCOC(=O)/C=C/c1cc(-c2ccc(S(C)(=O)=O)cc2)c(-c2ccc(F)cc2)s1` the pIC50 [1] was < 3.52 and the pIC50 [2] was 4.00.
In the case of `c1ccc(-c2ccsc2-c2ccccc2)cc1`, the pIC50 [1] was < 3.52, the half-life [3] was 4.94 h and the pIC50 [2] was 4.55. The Vd [4] was 19.6 L/kg, the bioavailability [5] was 20% and the clearance [6] was 51.3 mL/min/kg. The Tmax [7] was 4.2 h and the Cmax [8] was 100 ng/mL.
With `COc1ccc(-c2sccc2-c2ccc(S(C)(=O)=O)cc2)cc1` the pIC50 [1] was 5.30 and the pIC50 [2] was 4.32.
For `CS(=O)(=O)c1ccc(-c2c(-c3ccccc3)sc3c2CCCC3)cc1`, the pIC50 [1] was 4.72 and the pIC50 [2] was < 3.00.
With `CS(=O)(=O)c1ccc(-c2cc(Sc3ccccc3)sc2-c2ccc(F)cc2)cc1` the pIC50 [1] was 4.18 and the pIC50 [2] was < 3.52.
With `CS(=O)(=O)c1ccc(-c2cc([N+](=O)[O-])sc2-c2ccc(F)cc2)cc1` the pIC50 [1] was 4.85 and the pIC50 [2] was < 3.00.
With `CS(=O)(=O)c1ccc(-c2cscc2-c2ccc(S(C)(=O)=O)cc2)cc1` the pIC50 [1] was < 3.52 and the pIC50 [2] was < 3.52.
With `CS(=O)(=O)c1ccc(-c2ccccc2-c2ccccc2)cc1` the pIC50 [1] was 4.96, the half-life [3] was 1.7 h and the pIC50 [2] was < 3.00. For the same compound, the Vd [4] was 3.08 L/kg, the bioavailability [5] was 60% and the clearance [6] was 35.8 mL/min/kg. The Tmax [7] was 0.25 h and the Cmax [8] was 1430 ng/mL.
In the case of `CS(=O)(=O)c1ccc(-c2cc(Br)sc2-c2ccc(F)cc2)cc1` [DUP-697], the T max [9] was 1 h, the half-life [3] was 22 h and the half-life [10] was 31.8 h. It also gave a bioavailability [11] of 30.4%, an AUC [12] of 1.5 µg·h/mL and a Cmax [13] of 60.5 ng/mL. It also gave a T1/2 [14] of 6 h, an AUC [15] of 3240 µg·h/mL and a Cmax [16] of 698 ng/mL. The half-life [17] was 16.6 h, the half-life [18] was 292 h and the Vd [4] was 6.3 L/kg. It also gave a bioavailability [5] of 75%, a clearance [6] of 3.63 mL/min/kg and a Tmax [7] of 8 h. It also gave a Tmax [19] of 3 h, a bioavailability [20] of 4.4% and an AUC [21] of 56 µg·h/mL. The Tmax [22] was 24 h, the Cmax [23] was 411 ng/mL and the Cmax [8] was 2400 ng/mL.
`CS(=O)(=O)c1ccc(-c2ccsc2-c2ccc(O)cc2)cc1` showed a pIC50 [1] of 4.07 and a pIC50 [2] of 3.53.
Compound `CSc1ccc(-c2cscc2-c2ccc(S(C)(=O)=O)cc2)cc1` has a pIC50 [1] of 5.22 and a pIC50 [2] of 4.03.
